SMILES | melting point [°C]
CCOC(=O)CN(Cc1cccnc1)c1ccc(C(O)(C(F)(F)F)C(F)(F)F)cc1 | 55
COC(=O)c1nc(C2CC2)nc(SC)c1Cl | 74 to 75
O=C(c1ccccn1)c1cnn2c(-c3cccc(NC(=O)C4CC4)c3)ccnc12 | 214 to 215
CC(=O)Nc1c(I)c(C(N)=O)c(I)c(C(=O)NCC(=O)O)c1I | 271 to 272
CS(=O)(=O)c1ccc(Oc2ccc(Cl)cc2)cc1 | 109 to 111
O=C(O)C(Cc1ccccc1)Nc1nccc(-c2ccc(OCc3ccccc3)cc2)n1 (stereo not given) | 174
COc1cc(O)c(C(=O)C=Cc2ccc(SC)cc2)c(OC)c1 | 135
COc1ccc(CON(CCCBr)S(=O)(=O)c2ccc(C)cc2)cc1 | 89.5 to 91.5
O=C(O)/C=C/c1cccc(OS(=O)(=O)C(F)(F)F)c1 | 107
Cc1sc(I)c(C)c1CO | 118 to 120
CN(C)c1nn(-c2cc(F)c(C#N)cc2F)c(=O)n1C | 131 to 133
CNc1nc(SC)nc(N(C)C)c1[N+](=O)[O-] | 128 to 132
Cc1cc2cc(OCCC#N)ccc2o1 | 73 to 76
CC1CN(c2nc(Cl)nc(C(C)O)n2)CC(C)N1 (stereo not given) | 126 to 128
CC(C)(C)c1cc2c(c(C(C)(C)C)c1)OC(C(F)(F)F)C(C(=O)O)=C2 (stereo not given) | 172 to 175
CCCc1c(OCc2ccc(CSc3nnn[nH]3)cc2)ccc(C(C)=O)c1O | 160 to 161
Cc1ccccc1S(=O)(=O)NC(=O)Nc1cc(C)c(S(=O)(=O)C[N+](=O)[O-])c(C)c1 | 194 to 196

Results, then the compound that gave them:

melting point [°C] | SMILES
76 to 81 | COc1ccccc1N1CCN(CCN2C(=O)c3ccccc3C2=O)CC1
108 to 110 | O=C(O)[C@H](Cc1ccc(O)cc1)NS(=O)(=O)c1ccc(N2CCC(c3ccccc3)CC2)cc1
230 | C#CCOc1ccc2c(C(=O)OCC)cc(=O)oc2c1
130 to 132 | OCc1ccc2cc(OCc3ccccc3)ccc2c1
182 | O=c1c([N+](=O)[O-])c(O)c2cccnc2n1Cc1ccccc1
138 to 147 | NCC(O)COc1ccc(-c2ccccc2)cc1 (stereo not given)
133 to 136 | CNc1nc(-c2ccccc2)c(CCOC)c2ncnn12
113 to 114 | O=C1CN2Cc3ccc(OCCCC(=O)N(CCO)CCCCC4CCCCC4)cc3N=C2N1
172 to 174 | O=C1NC(Cc2ccccc2)C(C(=O)O)O1 (stereo not given)
178 to 180 | COC(=O)c1ccc(C(C(N)=O)C(C)c2cc([N+](=O)[O-])ccc2N2CCCCC2)cc1 (stereo not given)
100 to 102 | O=C1C(CCO)Oc2cc([N+](=O)[O-])ccc2N1Cc1cccc(Cl)c1 (stereo not given)
30 | CCCCCC1CCC(c2ccc(C(=O)O)cc2)CC1 (stereo not given)
198 to 199 | O=S(=O)(Cc1cn(C23CC4CC(CC(C4)C2)C3)nn1)c1cc(Cl)ccc1Cl
204 to 208 | Cc1ccc(CC2CCN(C(=O)NC(=O)c3ccc(OCc4ccccc4)cc3)CC2)cc1
120 to 125 | CC(C)(CCl)C(O)C(Oc1ccc(Cl)cc1)n1ccnc1 (stereo not given)
83 to 84.5 | O=C(OCC(Cl)(Cl)Cl)N1C2CCC1CC(Sc1ccccc1)C2 (stereo not given)
180 to 183 | Cn1cc(C(=O)NCc2ccc(Cl)cc2)c(=O)c2cc(CN3CCOCC3)cc(C#CCN3CCC(O)CC3)c21
> 300 | Nc1nc(N)c2cc(C=Cc3ccc(C(=O)O)cc3)cnc2n1
206 to 208 | Cc1ccc(CC2CCN(C(=O)CNc3ccc4c(c3)OCC(=O)N4)CC2)cc1
164 to 166 | Cn1cc(-c2ccccc2)c(=O)c(-c2cccc(C#N)c2)c1
175 | CC(C)(C)OC(=O)NCC(=O)Oc1cc2c(c3ccccc13)Nc1ccccc1S2
78 to 80 | O=C(OC1C(OCCBr)OC(COCc2ccccc2)C(O)C1OC(=O)c1ccccc1)c1ccccc1 (stereo not given)
174 to 175 | COCOc1ccc(Cl)cc1-c1cc(-c2cccc(N)c2)c(C#N)c(NC(=O)c2ccccc2)n1

From a melting point compilation (Tetko et al.; mined from patent text by program, amines drawn as free bases though some values may be those of a salt)
